Laboratory results as given in EP0908457B1, “3-(1,2-benzisothiazol- and isoxazol-5-Y1)-2,4(1H,3H)-pyrimidinedione or thione and 3-(1,2-benzisothiazol- and isoxazol-5-y1)-4(3H)-pyrimidinone or thione herbicidal agents” (BASF AKTIENGESELLSCHAFT, priority 1997, dated 1999).

Tests used:
[1] = system: Oryza sativa, (L.) Tebonnet; test: Rice tolerance to post-transplant applications under flooded paddy conditions (Example 187), ORYSAT (Rice, Tebonnet); settings: rated three to four weeks after treatment; for herbicidal effect rating ORYSAT: meaning of each grade not given here
[2] = system: Monochoria vaginalis, Presl.; test: Preemergence weed control under flooded paddy conditions, MOOVA (Monochoria); type: in vivo; settings: preemergence, flooded paddy, rated three to four weeks after treatment; note: meaning of each grade not given here
[3] = system: Sagittaria pygmaea, L.; test: Preemergence weed control under flooded paddy conditions, SAGPY (Arrowhead (Pygmaea)); type: in vivo; settings: preemergence, flooded paddy, rated three to four weeks after treatment; note: meaning of each grade not given here
[4] = system: Cyperus serotinus, Rottb.; test: Preemergence weed control under flooded paddy conditions, CYPSE (Flatsedge); type: in vivo; settings: preemergence, rated three to four weeks after treatment; note: meaning of each grade not given here
[5] = system: Echinochloa oryzoides (Ard.) Fritsch.; test: Preemergence weed control under flooded paddy conditions, ECHORC (Watergrass (Calif.)); type: in vivo; settings: preemergence, flooded paddy, rated three to four weeks after treatment; note: meaning of each grade not given here
[6] = system: Cyperus iria; test: Preemergence weed control under flooded paddy conditions, CYPIR (Rice Flatsedge); type: in vivo; settings: preemergence, flooded paddy, rated three to four weeks after treatment; note: meaning of each grade not given here

In the case of `CSCc1nsc2ccc(-n3c(=O)cc(C(F)(F)F)n(C)c3=O)cc12` [Example 21, 1-Methyl-3-{3-{(methylthio)methyl]-1,2-benzisothiazol-5-yl}-6-(trifluoromethyl)-2,4(1H,3H)-pyrimidinedione], the “herbicidal effect rating, ORYSAT (rice tolerance)” value (from here on “herbicidal effect rating, ORYSAT”) ([1]; 0.0313 kg/ha) is reported as 1.7, the “herbicidal effect rating, ORYSAT” value ([1]; 0.0625 kg/ha) is reported as 2.0 and the “herbicidal effect rating, ORYSAT” value ([1]; 0.1250 kg/ha) is reported as 2.3. The “herbicidal effect rating, ORYSAT” value ([1]; 0.2500 kg/ha) was 4.3, the “herbicidal effect rating, MOOVA” value ([2]; 0.0313 kg/ha) was 4.0 and the “herbicidal effect rating, MOOVA” value ([2]; 0.0625 kg/ha) was 6.0. The “herbicidal effect rating, MOOVA” value ([2]; 0.1250 kg/ha) was 7.5, the “herbicidal effect rating, MOOVA” value ([2]; 0.2500 kg/ha) was 9.0 and the “herbicidal effect rating, SAGPY” value ([3]; 0.0313 kg/ha) was 0.0. For the same compound, the “herbicidal effect rating, SAGPY” value ([3]; 0.0625 kg/ha) was 0.0, the “herbicidal effect rating, SAGPY” value ([3]; 0.1250 kg/ha) was 0.0 and the “herbicidal effect rating, SAGPY” value ([3]; 0.2500 kg/ha) was 0.0. The “herbicidal effect rating, CYPSE” value ([4]; 0.0313 kg/ha) was 0.0, the “herbicidal effect rating, CYPSE” value ([4]; 0.0625 kg/ha) was 0.0 and the “herbicidal effect rating, CYPSE” value ([4]; 0.1250 kg/ha) was 0.0. The “herbicidal effect rating, CYPSE” value ([4]; 0.2500 kg/ha) was 0.0, the “herbicidal effect rating, ECHORC” value ([5]; 0.0313 kg/ha) was 0.0 and the “herbicidal effect rating, ECHORC” value ([5]; 0.0625 kg/ha) was 0.7. The “herbicidal effect rating, ECHORC” value ([5]; 0.1250 kg/ha) was 2.7, the “herbicidal effect rating, ECHORC” value ([5]; 0.2500 kg/ha) was 4.7 and the “herbicidal effect rating, CYPIR” value ([6]; 0.0313 kg/ha) was 0.0. For the same compound, the “herbicidal effect rating, CYPIR” value ([6]; 0.0625 kg/ha) was 0.0, the “herbicidal effect rating, CYPIR” value ([6]; 0.1250 kg/ha) was 0.5 and the “herbicidal effect rating, CYPIR” value ([6]; 0.2500 kg/ha) was 1.0.

In the case of `Cc1ccc(OCC(=O)OCCN(C)C)c(-c2nsc3ccc(-n4c(=O)cc(C(F)(F)F)n(C)c4=O)cc23)c1` [Example 70, 2-(Dimethylamino)ethyl {{2-{5-[3,6-dihydro-3-methyl-2,6-dioxo-4-(trifluoromethyl)-1(2H)-pyrimidinyl]-1,2-benzisothiazol-3-yl}-p-tolyl}oxy}acetate], the “herbicidal effect rating, ORYSAT” value ([1]; 0.0313 kg/ha) is reported as 3.0, the “herbicidal effect rating, ORYSAT” value ([1]; 0.0625 kg/ha) is reported as 4.5 and the “herbicidal effect rating, ORYSAT” value ([1]; 0.1250 kg/ha) is reported as 6.0. The “herbicidal effect rating, ORYSAT” value ([1]; 0.2500 kg/ha) was 6.5, the “herbicidal effect rating, MOOVA” value ([2]; 0.0313 kg/ha) was 9.0 and the “herbicidal effect rating, MOOVA” value ([2]; 0.0625 kg/ha) was 9.0. For the same compound, the “herbicidal effect rating, MOOVA” value ([2]; 0.1250 kg/ha) was 9.0, the “herbicidal effect rating, MOOVA” value ([2]; 0.2500 kg/ha) was 9.0 and the “herbicidal effect rating, SAGPY” value ([3]; 0.0313 kg/ha) was 0.0. For the same compound, the “herbicidal effect rating, SAGPY” value ([3]; 0.0625 kg/ha) was 0.0, the “herbicidal effect rating, SAGPY” value ([3]; 0.1250 kg/ha) was 1.0 and the “herbicidal effect rating, SAGPY” value ([3]; 0.2500 kg/ha) was 2.0. For the same compound, the “herbicidal effect rating, CYPSE” value ([4]; 0.0313 kg/ha) was 0.0, the “herbicidal effect rating, CYPSE” value ([4]; 0.0625 kg/ha) was 0.0 and the “herbicidal effect rating, CYPSE” value ([4]; 0.1250 kg/ha) was 0.0. The “herbicidal effect rating, CYPSE” value ([4]; 0.2500 kg/ha) was 0.0, the “herbicidal effect rating, ECHORC” value ([5]; 0.0313 kg/ha) was 4.0 and the “herbicidal effect rating, ECHORC” value ([5]; 0.0625 kg/ha) was 8.0. For the same compound, the “herbicidal effect rating, ECHORC” value ([5]; 0.1250 kg/ha) was 9.0, the “herbicidal effect rating, ECHORC” value ([5]; 0.2500 kg/ha) was 9.0 and the “herbicidal effect rating, CYPIR” value ([6]; 0.0313 kg/ha) was 2.0. For the same compound, the “herbicidal effect rating, CYPIR” value ([6]; 0.0625 kg/ha) was 7.0, the “herbicidal effect rating, CYPIR” value ([6]; 0.1250 kg/ha) was 9.0 and the “herbicidal effect rating, CYPIR” value ([6]; 0.2500 kg/ha) was 9.0.

In the case of `COC(=O)C(C)Oc1ccc(C(C)C)cc1-c1nsc2ccc(-n3c(=O)cc(C(F)(F)F)n(C)c3=O)cc12` (stereo not drawn) [Example 30, Methyl 2-{2-{5-[3,6-dihydro-3-methyl-4-(trifluoromethyl)-2,6-dioxo-1(2H)-pyrimidinyl]-1,2-benzisothiazol-3-yl}-4-isopropylphenoxy}propionate], the “herbicidal effect rating, ORYSAT” value ([1]; 0.0313 kg/ha) is reported as 2.0, the “herbicidal effect rating, ORYSAT” value ([1]; 0.0625 kg/ha) is reported as 3.0 and the “herbicidal effect rating, ORYSAT” value ([1]; 0.1250 kg/ha) is reported as 3.0. For the same compound, the “herbicidal effect rating, ORYSAT” value ([1]; 0.2500 kg/ha) was 3.5, the “herbicidal effect rating, MOOVA” value ([2]; 0.0313 kg/ha) was 9.0 and the “herbicidal effect rating, MOOVA” value ([2]; 0.0625 kg/ha) was 9.0. For the same compound, the “herbicidal effect rating, MOOVA” value ([2]; 0.1250 kg/ha) was 9.0, the “herbicidal effect rating, MOOVA” value ([2]; 0.2500 kg/ha) was 9.0 and the “herbicidal effect rating, SAGPY” value ([3]; 0.0313 kg/ha) was 0.0. The “herbicidal effect rating, SAGPY” value ([3]; 0.0625 kg/ha) was 0.0, the “herbicidal effect rating, SAGPY” value ([3]; 0.1250 kg/ha) was 2.0 and the “herbicidal effect rating, SAGPY” value ([3]; 0.2500 kg/ha) was 7.0. The “herbicidal effect rating, CYPSE” value ([4]; 0.0313 kg/ha) was 0.0, the “herbicidal effect rating, CYPSE” value ([4]; 0.0625 kg/ha) was 0.0 and the “herbicidal effect rating, CYPSE” value ([4]; 0.1250 kg/ha) was 4.0. The “herbicidal effect rating, CYPSE” value ([4]; 0.2500 kg/ha) was 2.0, the “herbicidal effect rating, ECHORC” value ([5]; 0.0313 kg/ha) was 6.5 and the “herbicidal effect rating, ECHORC” value ([5]; 0.0625 kg/ha) was 8.5. The “herbicidal effect rating, ECHORC” value ([5]; 0.1250 kg/ha) was 9.0, the “herbicidal effect rating, ECHORC” value ([5]; 0.2500 kg/ha) was 9.0 and the “herbicidal effect rating, CYPIR” value ([6]; 0.0313 kg/ha) was 2.0. For the same compound, the “herbicidal effect rating, CYPIR” value ([6]; 0.0625 kg/ha) was 6.0, the “herbicidal effect rating, CYPIR” value ([6]; 0.1250 kg/ha) was 8.0 and the “herbicidal effect rating, CYPIR” value ([6]; 0.2500 kg/ha) was 8.0.

`Cn1c(C(F)(F)F)cc(=O)n(-c2ccc3snc(C(=O)NS(=O)(=O)c4cccs4)c3c2)c1=O` [Example 391, 1,2-Benzisothiazole-3-carboxamide, 5-[3,6-dihydro-3-methyl-2,6-dioxo-4-(trifluoromethyl)-1(2H)-pyrimidinyl]-N-(2-thienylsulfonyl)-] was tested, and the “herbicidal effect rating ORYSAT” value ([1]; Rate 0.0320 kg/ha) was 2.0, the “herbicidal effect rating ORYSAT” value ([1]; Rate 0.0620 kg/ha) was 2.0 and the “herbicidal effect rating ORYSAT” value ([1]; Rate 0.1250 kg/ha) was 3.0. For the same compound, the “herbicidal effect rating ORYSAT” value ([1]; Rate 0.2500 kg/ha) was 3.0, the “herbicidal effect rating ORYSAT” value ([1]; Rate 0.5000 kg/ha) was 3.0 and the “herbicidal effect rating, MOOVA” value ([2]; Rate 0.0320 kg/ha) was 6.0. The “herbicidal effect rating, MOOVA” value ([2]; Rate 0.0620 kg/ha) was 9.0, the “herbicidal effect rating, MOOVA” value ([2]; Rate 0.1250 kg/ha) was 9.0 and the “herbicidal effect rating, MOOVA” value ([2]; Rate 0.2500 kg/ha) was 9.0. The “herbicidal effect rating, MOOVA” value ([2]; Rate 0.5000 kg/ha) was 9.0, the “herbicidal effect rating, SAGPY” value ([3]; Rate 0.0320 kg/ha) was 6.0 and the “herbicidal effect rating, SAGPY” value ([3]; Rate 0.0620 kg/ha) was 6.0. For the same compound, the “herbicidal effect rating, SAGPY” value ([3]; Rate 0.1250 kg/ha) was 7.0, the “herbicidal effect rating, SAGPY” value ([3]; Rate 0.2500 kg/ha) was 7.0 and the “herbicidal effect rating, SAGPY” value ([3]; Rate 0.5000 kg/ha) was 9.0. The “herbicidal effect rating, CYPSE” value ([4]; Rate 0.0320 kg/ha) was 0.0, the “herbicidal effect rating, CYPSE” value ([4]; Rate 0.0620 kg/ha) was 0.0 and the “herbicidal effect rating, CYPSE” value ([4]; Rate 0.1250 kg/ha) was 0.0. For the same compound, the “herbicidal effect rating, CYPSE” value ([4]; Rate 0.2500 kg/ha) was 0.0, the “herbicidal effect rating, CYPSE” value ([4]; Rate 0.5000 kg/ha) was 3.0 and the “herbicidal effect rating, ECHORC” value ([5]; Rate 0.0320 kg/ha) was 0.0. The “herbicidal effect rating, ECHORC” value ([5]; Rate 0.0620 kg/ha) was 0.0, the “herbicidal effect rating, ECHORC” value ([5]; Rate 0.1250 kg/ha) was 2.0 and the “herbicidal effect rating, ECHORC” value ([5]; Rate 0.2500 kg/ha) was 4.0. The “herbicidal effect rating, ECHORC” value ([5]; Rate 0.5000 kg/ha) was 6.0, the “herbicidal effect rating, CYPIR” value ([6]; Rate 0.0320 kg/ha) was 3.0 and the “herbicidal effect rating, CYPIR” value ([6]; Rate 0.0620 kg/ha) was 3.0. For the same compound, the “herbicidal effect rating, CYPIR” value ([6]; Rate 0.1250 kg/ha) was 4.0, the “herbicidal effect rating, CYPIR” value ([6]; Rate 0.2500 kg/ha) was 6.0 and the “herbicidal effect rating, CYPIR” value ([6]; Rate 0.5000 kg/ha) was 9.0.
